# Legend:
# [1] = biological target: T1, Free fatty acid receptor 1 (Homo sapiens, UniProt O14842); assay: Agonist activity at GPR40 (unknown origin) expressed in CHO cells incubated for 2 hrs measured over 20 secs in presence of human serum albumin by aequorin based luminescence assay relative to AM-1638; assay type: functional, cell-based
# [2] = biological target: T1, Free fatty acid receptor 1; assay: Agonist activity at GPR40 (unknown origin) expressed in CHO cells incubated for 2 hrs measured over 20 secs in presence of human serum albumin by aequorin based luminescence assay; assay type: functional, cell-based
# [3] = Clearance in dog at 0.5 mg/kg, iv; conditions: in vivo
# [4] = Half life in dog at 0.5 mg/kg, iv; assay type: ADME, organism-based, Canis lupus familiaris; conditions: in vivo
# [5] = system: Cynomolgus monkey; assay: Volume of distribution at steady state in cynomolgus monkey at […]; assay type: ADME, organism-based, Macaca fascicularis; conditions: in vivo
# [6] = (§1) AUC in rat at 2 mg/kg, po; assay type: ADME, organism-based; conditions: in vivo
# [7] = Half life in cynomolgus monkey at 0.5 mg/kg, iv; assay type: ADME, organism-based, Macaca fascicularis; conditions: in vivo
# [8] = system: Canis familiaris; assay: Volume of distribution at steady state in dog at […]; assay type: ADME, organism-based, Canis lupus familiaris; conditions: in vivo
# [9] = Oral bioavailability in dog at 2 mg/kg; assay type: ADME, organism-based, Canis lupus familiaris; conditions: in vivo
# [10] = AUC in cynomolgus monkey at 10 mg/kg, po; assay type: ADME, organism-based, Macaca fascicularis; conditions: in vivo
# [11] = Oral bioavailability in cynomolgus monkey at 10 mg/kg; assay type: ADME, organism-based, Macaca fascicularis; conditions: in vivo
# [12] = Fraction unbound in rat plasma at 0.5 mg/kg, iv or 2 mg/kg, po; assay type: ADME, organism-based
# [13] = Clearance in cynomolgus monkey at 0.5 mg/kg, iv; conditions: in vivo
# [14] = Oral bioavailability in rat at 2 mg/kg; assay type: ADME, organism-based; conditions: in vivo
# [15] = Clearance in rat at 0.5 mg/kg, iv; conditions: in vivo
# [16] = Cmax in rat at 2 mg/kg, po; assay type: ADME, organism-based; parameters: dose 2 mg/kg, route oral; conditions: in vivo
# [17] = system: Cynomolgus monkey; assay: Antidiabetic activity in prediabetic high fat feed cynomolgus monkey assessed as reduction in plasma glucose AUC at 10 mg/kg, po administered via gavage 2 hrs prior to glucose challenge by oral glucose tolerance test; assay type: functional, Macaca fascicularis; parameters: scale not given: the % may be the effect or the level left
# [18] = Fraction unbound in dog plasma at 0.5 mg/kg, iv; assay type: ADME, organism-based, Canis lupus familiaris
# [19] = Fraction unbound in cynomolgus monkey plasma at 0.5 mg/kg, iv; assay type: ADME, organism-based, Macaca fascicularis
# [20] = system: Rattus norvegicus; assay: Volume of distribution at steady state in rat at 0.5 mg/kg, iv; conditions: in vivo
# [21] = Half life in rat at 0.5 mg/kg, iv; assay type: ADME, organism-based; conditions: in vivo
# [22] = AUC in dog at 2 mg/kg, po; assay type: ADME, organism-based, Canis lupus familiaris; conditions: in vivo
# [23] = system: Rattus norvegicus; assay: as §1; assay type: ADME, organism-based; conditions: in vivo
# [24] = system: Rattus norvegicus; assay: Clearance in rat at 0.5 mg/kg, iv; conditions: in vivo
# T1 sequence (O14842 whole entry): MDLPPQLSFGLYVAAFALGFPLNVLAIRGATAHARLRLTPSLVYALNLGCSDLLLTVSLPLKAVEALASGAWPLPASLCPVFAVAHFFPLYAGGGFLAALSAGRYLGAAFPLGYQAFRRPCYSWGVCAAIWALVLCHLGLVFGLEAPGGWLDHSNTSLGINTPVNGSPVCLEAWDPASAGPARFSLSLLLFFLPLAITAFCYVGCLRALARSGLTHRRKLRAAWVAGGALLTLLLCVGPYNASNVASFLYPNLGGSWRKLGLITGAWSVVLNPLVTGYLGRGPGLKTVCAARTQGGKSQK
compound,measurement,setting,value
CC[C@H](CC(=O)O)c1cc(F)cc(OCc2ccc(-c3cc(OC)ccc3F)c([C@@H]3CCCC3(C)C)c2)c1,Efficacy,[1],105%
same,EC50,[2],90 nM
"CC[C@H](CC(=O)O)c1cccc(OCc2ccc(-c3cc(OC)ccc3F)c(C3CCCC3(C)C)c2)c1F (single isomer, unassigned)",clearance,[3],3.5 mL/min/kg
same,half-life,[4],4.1 h
same,Vdss,[5],0.5 L/kg
same,AUC,[6],8.22 µM·h
same,half-life,[7],3.3 h
same,Vdss,[8],0.68 L/kg
same,bioavailability,[9],62%
same,AUC,[10],80.4 µM·h
same,bioavailability,[11],91%
same,fraction unbound,[12],0.003
same,clearance,[13],3.67 mL/min/kg
same,Efficacy,[1],104%
same,bioavailability,[14],72%
same,clearance,[15],5.5 mL/min/kg
same,Cmax,[16],1180 nM
same,EC50,[2],120 nM
same,Activity,[17],18%
same,fraction unbound,[18],0.034
same,fraction unbound,[19],0.017
same,Vdss,[20],0.81 L/kg
same,half-life,[21],2 h
same,AUC,[22],11.6 µM·h
COc1ccc(F)c(-c2ccc(COc3cccc([C@H](CC(=O)O)C4CC4)c3)cc2[C@@H]2CCCC2(C)C)c1,Efficacy,[1],89%
same,EC50,[2],1830 nM
COc1ccc(F)c(-c2ccc(COc3cccc([C@@H](CC(=O)O)C4CC4)c3)cc2[C@@H]2CCCC2(C)C)c1,AUC,[6],1.83 µM·h
same,fraction unbound,[12],0.006
same,Efficacy,[1],101%
same,clearance,[15],12 mL/min/kg
same,Cmax,[16],250 nM
same,EC50,[2],80 nM
same,Vdss,[20],1.68 L/kg
COc1ccc(F)c(-c2ccc(COc3cccc([C@@H](CC(=O)O)C4CC4)c3F)cc2[C@@H]2CCCC2(C)C)c1,AUC,[6],2.43 µM·h
same,fraction unbound,[12],0.003
same,Efficacy,[1],100%
same,bioavailability,[14],32%
same,clearance,[15],8.17 mL/min/kg
same,Cmax,[16],360 nM
same,EC50,[2],100 nM
same,Vdss,[20],1.9 L/kg
same,half-life,[21],3.3 h
COc1ccc(F)c(-c2ccc(COc3cccc([C@@H](CC(=O)O)C4CC4)c3)cc2C2=CCCC2(C)C)c1,Vdss,[5],2 L/kg
same,AUC,[23],15.1 µM·h
same,AUC,[10],18.8 µM·h
same,bioavailability,[11],71%
same,fraction unbound,[12],0.01
same,clearance,[13],13.5 mL/min/kg
same,Efficacy,[1],100%
same,CL,[24],15.2 mL/min/kg
same,fraction unbound,[19],0.012
same,Vdss,[20],1.1 L/kg
N[C@@H](CC(=O)N1CCn2c(nnc2C(F)(F)F)C1)Cc1cc(F)c(F)cc1F [SITAGLIPTIN],Activity,[17],13%
CC[C@H](CC(=O)O)c1ccc(F)c(OCc2ccc(-c3cc(OC)ccc3F)c(C3=CCCC3(C)C)c2)c1,Efficacy,[1],82%
same,EC50,[2],740 nM
COc1ccc(F)c(-c2ccc(COc3cccc([C@@H](CC(=O)O)C4CCC4)c3)cc2[C@@H]2CCCC2(C)C)c1,Efficacy,[1],100%
same,EC50,[2],90 nM
COc1ccc(F)c(-c2ccc(COc3cccc(CCC(=O)O)c3)cc2[C@@H]2CCCC2(C)C)c1,Efficacy,[1],120%
same,EC50,[2],450 nM
CC[C@H](CC(=O)O)c1cccc(OCc2ccc(-c3cc(OC)ccc3F)c([C@@H]3CCCC3(C)C)c2)c1,AUC,[6],1.74 µM·h
same,fraction unbound,[12],0.006
same,Efficacy,[1],102%
same,bioavailability,[14],29%
same,clearance,[15],11.2 mL/min/kg
same,Cmax,[16],370 nM
same,EC50,[2],80 nM
same,Vdss,[20],1.12 L/kg
same,half-life,[21],2.1 h
COc1ccc(F)c(-c2ccc(COc3cccc([C@H](C)CC(=O)O)c3)cc2[C@@H]2CCCC2(C)C)c1,Efficacy,[1],106%
same,EC50,[2],170 nM
COc1ccc(F)c(-c2ccc(COc3cccc([C@@H](CC(=O)O)CC4CC4)c3)cc2[C@@H]2CCCC2(C)C)c1,Efficacy,[1],98%
same,EC50,[2],100 nM
CCC[C@H](CC(=O)O)c1cccc(OCc2ccc(-c3cc(OC)ccc3F)c([C@@H]3CCCC3(C)C)c2)c1,Efficacy,[1],100%
same,EC50,[2],110 nM
CC[C@@H](CC(=O)O)c1cccc(OCc2ccc(-c3cc(OC)ccc3F)c([C@@H]3CCCC3(C)C)c2)c1,Efficacy,[1],76%
same,EC50,[2],1960 nM
COc1ccc(F)c(-c2ccc(COc3cccc([C@@H](CC(=O)O)C4CC4)c3)cc2C2CCCC2(C)C)c1 (mixture of isomers),Efficacy,[1],97%
same,EC50,[2],140 nM
CC[C@H](CC(=O)O)c1cc(OCc2ccc(-c3cc(OC)ccc3F)c([C@@H]3CCCC3(C)C)c2)ccc1F,Efficacy,[1],100%
same,EC50,[2],210 nM
COc1ccc(F)c(-c2ccc(COc3cccc([C@@H](CC(=O)O)C4CC4)c3)cc2[C@H]2CCCC2(C)C)c1,Efficacy,[1],100%
same,EC50,[2],310 nM
